Measured values published in patent US7781596B1, “Substituted 2-phenylbenzimidazoles, the production thereof and their use” (Abbott Laboratories, priority 1998, dated 2010).
Counter-ions that a name gives are not always drawn. Like-named read-outs stand apart in the source and are kept apart here.

Legend:
[1] = pH 5
Procedure: (§1) If the measured substance is not in the form of a water-soluble salt, it was dissolved in the minimum amount of dimethyl sulfoxide and then diluted with water (final dimethyl sulfoxide concentration≦1%), after which the pH was again adjusted.

circulatory failure = details: S. Cuzzocrea et al., Br. J. Pharmacol. 1997, 121, 1065-1074; cited from earlier work
[2] = Determination of the solubility in water; details: solution adjusted to pH 5 to 6 with sodium acetate, DMSO <=1% if not a water-soluble salt
Procedure: as §1

Compound: CCN(CC)CCOc1ccc(-c2nc3c(C(N)=O)cccc3[nH]2)cc1 [Example 2, 2-(4-(2-(N,N-Diethylamino)eth-1-yloxy)phenyl)benzimidazole-4-carboxamide×2 hydrochloride]
- solubility in water [1]: > 0.5%

Compound: NC(=O)c1cccc(N)c1 [3-aminobenzamide]
- effects in a model of circulatory failure (circulatory failure): protective effects

Compound: COc1ccc(-c2nc3cccc(C(N)=O)c3[nH]2)cc1 [NU 1076]
- solubility in water [2]: < 0.01%
